# Assay results reported in US5086045A, “Antitumor antibiotic” (Bristol-Myers Squibb Company, priority 1990, dated 1992).
# Key:
# B. subtilis A9506-A = test: Antibacterial activity (MIC), serial two-fold agar dilution; format: cell-based; conditions: Bacillus subtilis, A9506A
# Description: (§1) Antimicrobial activity of BMY-41339 was determined for a variety of bacteria by the serial two-fold agar dilution method.
# E. coli A15119 = test: as above; format: cell-based; conditions: Escherichia coli
# Description: as §1
# E. coli A20697 = test: as above; format: cell-based; conditions: Escherichia coli
# Description: as §1
# E. coli A9751 = test: as above; format: cell-based; conditions: Escherichia coli
# Description: as §1
# E. faecalis A20688 = test: as above; format: cell-based; conditions: Enterococcus faecalis
# Description: as §1
# E. faecalis A25707 = test: as above; format: cell-based; conditions: Enterococcus faecalis
# Description: as §1
# E. faecalis A25708 = test: as above; format: cell-based; conditions: Enterococcus faecalis
# Description: as §1
# K. pneumoniae A20468 = test: as above; format: cell-based; conditions: Klebsiella pneumoniae
# Description: as §1
# K. pneumoniae A9664 = test: as above; format: cell-based; conditions: Klebsiella pneumoniae
# Description: as §1
# P. aeruginosa A20235 = test: as above; format: cell-based; conditions: Pseudomonas aeruginosa
# Description: as §1
# P. aeruginosa A21508 = test: as above; format: cell-based; conditions: Pseudomonas aeruginosa
# Description: as §1
# P. aeruginosa A9843 = test: as above; format: cell-based; conditions: Pseudomonas aeruginosa
# Description: as §1
# P. vulgaris A21559 = test: as above; format: cell-based; conditions: Proteus vulgaris
# Description: as §1
# S. aureus A20698 = test: as above; format: cell-based; conditions: Staphylococcus aureus
# Description: as §1
# S. aureus A24407 = test: as above; format: cell-based; conditions: Staphylococcus aureus
# Description: as §1
# S. aureus A9537 = test: as above; format: cell-based; conditions: Staphylococcus aureus
# Description: as §1
# P388 leukemia = test: In vivo antitumor activity, P388 leukemia implanted ip, drug ip; set-up: species or system mouse
# Description: The in vivo antitumor activity of BMY-41339 was determined in the standard P388 mouse leukemia model. A summary of the experiments performed using BMY-41339 is provided below.
# DBA/2 and (Balb/c × DBA/2)F1 (CDF1) hybrid mice were purchased from Charles River Breeding Co. (Wilmington, MA). They were provided food and water ad libitum.
# The P388 murine ascites leukemia was maintained by weekly in vivo passage in DBA/2 mice.
# Esperamicin A1 and BMY-41339 were dissolved in ethanol. Further dilutions were made with 0.9% NaCl (saline) until the ethanol concentration (v/v) was 10%. All administrations were made, therefore, in a 10% ethanol in saline vehicle. For ip injections, the concentration of compound was adjusted according to the average initial body weight of each group of mice to be injected such that the desired dose would be contained in a 0.5 ml injection volume. The same procedure was used for iv compound administration except the injection volume was 0.2 ml.
# Antitumor experiments were initiated by implanting […] P388 leukemia cells either ip or iv into CDF1 mice. BMY-41339 and esperamicin A1 (included as a positive reference compound), were injected either ip in mice implanted ip with P388, or iv in mice implanted iv with P388 on Day 2 post-implant only Eight different dose levels of BMY-41339, at two-fold increments, were evaluated in each of the two experiments performed.
# A % T/C value of ≥ 125 was considered indicative of activity in these models.
# [1] = Exp. 8102, ip, 0.025 mg/kg/dose
# [2] = Exp. 8109, ip, 0.025 mg/kg/dose
structure (smiles),measurement,setting,value
C=C(OC)C(=O)Nc1cc(OC)c(OC)cc1C(=O)OC1CC(OC2C(=O)C(NC(=O)OC)=C3C(=CCSSSSC)C2(O)C#CC=CC#CC3OC2OC(C)C(NOC3CC(O)C(SC)C(C)O3)C(O)C2OC2CC(OC)C(NC(C)C)CO2)OC(C)C1O (stereo not drawn) [BMY-41339],MIC,B. subtilis A9506-A,0.001 µg/mL
same,MIC,E. coli A15119,0.25 µg/mL
same,MIC,E. coli A20697,0.25 µg/mL
same,MIC,E. coli A9751,0.016 µg/mL
same,MIC,E. faecalis A20688,0.002 µg/mL
same,MIC,E. faecalis A25707,0.002 µg/mL
same,MIC,E. faecalis A25708,0.002 µg/mL
same,MIC,K. pneumoniae A20468,1 µg/mL
same,MIC,K. pneumoniae A9664,1 µg/mL
same,MIC,P. aeruginosa A20235,0.13 µg/mL
same,MIC,P. aeruginosa A21508,0.25 µg/mL
same,MIC,P. aeruginosa A9843,0.25 µg/mL
same,MIC,P. vulgaris A21559,0.13 µg/mL
same,MIC,S. aureus A20698,0.001 µg/mL
same,MIC,S. aureus A24407,0.001 µg/mL
same,MIC,S. aureus A9537,0.001 µg/mL
same,T/C,"P388 leukemia; Exp. 8102, ip, 1.6 μg/kg",145%
same,T/C,"P388 leukemia; Exp. 8102, ip, 3.2 μg/kg (highest dose tested)",140%
same,% T/C,P388 leukemia; [1],110%
same,Avg. wt. change on day 6,P388 leukemia; [1],0.8 grams
same,Survivors on Day 5,P388 leukemia; [1],6/6
same,% T/C,"P388 leukemia; Exp. 8102, ip, 0.05 mg/kg/dose",110%
same,Avg. wt. change on day 6,"P388 leukemia; Exp. 8102, ip, 0.05 mg/kg/dose",1.3 grams
same,Survivors on Day 5,"P388 leukemia; Exp. 8102, ip, 0.05 mg/kg/dose",6/6
same,% T/C,"P388 leukemia; Exp. 8102, ip, 0.1 mg/kg/dose",120%
same,Avg. wt. change on day 6,"P388 leukemia; Exp. 8102, ip, 0.1 mg/kg/dose",0.7 grams
same,Survivors on Day 5,"P388 leukemia; Exp. 8102, ip, 0.1 mg/kg/dose",6/6
same,% T/C,"P388 leukemia; Exp. 8102, ip, 0.2 mg/kg/dose",140%
same,Avg. wt. change on day 6,"P388 leukemia; Exp. 8102, ip, 0.2 mg/kg/dose",0.6 grams
same,Survivors on Day 5,"P388 leukemia; Exp. 8102, ip, 0.2 mg/kg/dose",6/6
same,% T/C,"P388 leukemia; Exp. 8102, ip, 0.4 mg/kg/dose",135%
same,Avg. wt. change on day 6,"P388 leukemia; Exp. 8102, ip, 0.4 mg/kg/dose",0.6 grams
same,Survivors on Day 5,"P388 leukemia; Exp. 8102, ip, 0.4 mg/kg/dose",6/6
same,% T/C,"P388 leukemia; Exp. 8102, ip, 0.8 mg/kg/dose",140%
same,Avg. wt. change on day 6,"P388 leukemia; Exp. 8102, ip, 0.8 mg/kg/dose",0.4 grams
same,Survivors on Day 5,"P388 leukemia; Exp. 8102, ip, 0.8 mg/kg/dose",6/6
same,% T/C,"P388 leukemia; Exp. 8102, ip, 1.6 mg/kg/dose",145%
same,Avg. wt. change on day 6,"P388 leukemia; Exp. 8102, ip, 1.6 mg/kg/dose",-0.1 grams
same,Survivors on Day 5,"P388 leukemia; Exp. 8102, ip, 1.6 mg/kg/dose",6/6
same,% T/C,"P388 leukemia; Exp. 8102, ip, 3.2 mg/kg/dose",140%
same,Avg. wt. change on day 6,"P388 leukemia; Exp. 8102, ip, 3.2 mg/kg/dose",0.7 grams
same,Survivors on Day 5,"P388 leukemia; Exp. 8102, ip, 3.2 mg/kg/dose",6/6
same,% T/C,"P388 leukemia; Exp. 8102, ip, single injections above 0.1 μg/kg, Day 2 only",≥ 135%
same,"overt drug-associated toxicity (e.g. excessive body weight loss, early deaths)","P388 leukemia; Exp. 8102, ip, up to 3.2 μg/kg",no obvious sign of overt drug-associated toxicity
same,% T/C,P388 leukemia; [2],110%
same,Avg. wt. change on day 6,P388 leukemia; [2],0.8 grams
same,Survivors on Day 5,P388 leukemia; [2],6/6
same,T/C,"P388 leukemia; Exp. 8109, ip, 32 μg/kg (highest dose tested)",171%
same,% T/C,"P388 leukemia; Exp. 8109, ip, 0.05 mg/kg/dose",110%
same,Avg. wt. change on day 6,"P388 leukemia; Exp. 8109, ip, 0.05 mg/kg/dose",1.3 grams
same,Survivors on Day 5,"P388 leukemia; Exp. 8109, ip, 0.05 mg/kg/dose",6/6
same,% T/C,"P388 leukemia; Exp. 8109, ip, 0.1 mg/kg/dose",120%
same,Avg. wt. change on day 6,"P388 leukemia; Exp. 8109, ip, 0.1 mg/kg/dose",0.7 grams
same,Survivors on Day 5,"P388 leukemia; Exp. 8109, ip, 0.1 mg/kg/dose",6/6
same,% T/C,"P388 leukemia; Exp. 8109, ip, 0.2 mg/kg/dose",140%
same,Avg. wt. change on day 6,"P388 leukemia; Exp. 8109, ip, 0.2 mg/kg/dose",0.6 grams
same,Survivors on Day 5,"P388 leukemia; Exp. 8109, ip, 0.2 mg/kg/dose",6/6
same,% T/C,"P388 leukemia; Exp. 8109, ip, 0.4 mg/kg/dose",135%
same,Avg. wt. change on day 6,"P388 leukemia; Exp. 8109, ip, 0.4 mg/kg/dose",0.6 grams
same,Survivors on Day 5,"P388 leukemia; Exp. 8109, ip, 0.4 mg/kg/dose",6/6
same,% T/C,"P388 leukemia; Exp. 8109, ip, 0.8 mg/kg/dose",140%
same,Avg. wt. change on day 6,"P388 leukemia; Exp. 8109, ip, 0.8 mg/kg/dose",0.4 grams
same,Survivors on Day 5,"P388 leukemia; Exp. 8109, ip, 0.8 mg/kg/dose",6/6
